Among the data in US8871796B2, “Diaryl ether derivatives as notch sparing gamma secretase inhibitors” (Merck Sharp & Dohme Corp., priority 2009, dated 2014) are IC50 values, retold here.

Like-named read-outs stand apart in the source and are kept apart here. Some results are limits rather than exact numbers.

The IC50 is the concentration needed to halve the response being measured.

The nature of this test: APP processing: AlphaLisa assay of secreted Aβ40 and Aβ42 from SP4CT cells. It counts as cell-based. The settings on record: Homo sapiens, SH-SY5Y cells expressing amyloid β protein (SP4CT cells). Here is the method: APP Processing (Assay Quantitates Secreted Aβ Analytes from Cell Lines):
The effect of compounds on the abundance of Aβ40 and Aβ42 peptides generated from SH-SY5Y cells expressing amyloid β protein (SP4CT cells) are determined by an AlphaLisa™ assay. Analogous to an ELISA assay, generation of […] AlphaLisa™ assay requires “donor” and “acceptor” beads to be brought in close proximity by specific antibody recognition of either Aβ40 or Aβ42 peptides. The assay is accomplished by removing media from compound-treated SP4CT cells to two different microplates, followed by the addition of donor beads conjugated with streptavidin binding a biotinylated anti-amyloid β monocolonal antibody (clone 4G8). Acceptor beads directly conjugated with anti-Aβ40 monoclonal antibody (G210) are added to one microplate and anti-Aβ42 monoclonal antibody (12F4) acceptor beads were added to the other. Abundance of Aβ40 and Aβ42 is directly proportional to the luminescent signal generated following excitation of donor beads by laser light.

Where [1] appears, read: read-out: IC50, inhibition of production of Aβ40 peptide.
The mark [2] stands for this setting: read-out: IC50, inhibition of production of Aβ42 peptide.

For the molecule `CCn1nc(-c2cccc(C3(NS(=O)(=O)NCC(F)(F)F)CC3)c2)cc1Oc1ccc(C(F)(F)F)cc1` [Example 36, N-[1-(3-{1-ethyl-5-[4-(trifluoromethyl)phenoxy]-1H-pyrazol-3-yl}phenyl)cyclopropyl]-N′-(2,2,2-trifluoroethyl)sulfamide], the IC50 was under 200 nM under setting [1] and under 200 nM under setting [2].

As for `CCn1nc(-c2cccc(C3(NS(=O)(=O)CC(F)(F)F)CC3)c2)c(Cl)c1Oc1ccc(C(F)(F)F)cc1` [Example 111, N-[1-(3-{4-chloro-1-ethyl-5-[4-(trifluoromethyl)phenoxy]-1H-pyrazol-3-yl}phenyl)cyclopropyl]-2,2,2-trifluoroethanesulfonamide], the concentration for half-maximal inhibition (IC50) is, setting by setting: under setting [1], under 200 nM; under setting [2], under 200 nM.

On to `CCn1nc(-c2cccc(C3(NS(=O)(=O)NC4CC(F)(F)C4)COC3)c2)cc1Oc1ccc(C#N)cc1` [Example 130, N-(3-{3-[5-(4-cyanophenoxy)-1-ethyl-1H-pyrazol-3-yl]phenyl}oxetane-3-yl)-N′-(3,3-difluorocyclobutyl)sulfamide], for which the IC50 is, setting by setting: under setting [1], under 200 nM; under setting [2], under 200 nM.

In the case of `CCn1nc(Oc2ccc(C(F)(F)F)cc2)cc1-c1cccc(C(C)(C)NS(=O)(=O)N2CCCC2)c1` [Example 26, N-[1-(3-{1-ethyl-3-[4-(trifluoromethyl)phenoxy]-1H-pyrazol-5-yl}phenyl)-1-methylethyl]pyrrolidine-1-sulfonamide], the IC50 is, setting by setting: under setting [1], under 200 nM; under setting [2], under 200 nM.

For `CCn1nc(-c2cccc(C(C)(C)NS(=O)(=O)CC(F)(F)F)c2)cc1Oc1ccc(CN2CCOCC2)cc1` [Example 78, N-[1-(3-{1-ethyl-5-[4-(morpholin-4-ylmethyl)phenoxy]-1H-pyrazol-3-yl}phenyl)-1-methylethyl]-2,2,2-trifluoroethanesulfonamide], the IC50 was under 200 nM under setting [1] and under 200 nM under setting [2].

As for `CCn1nc(Oc2ccc(C(F)(F)F)cc2)cc1-c1ccc2c(c1)CC(NS(=O)(=O)NCC(C)C)C2` (centres unmarked) [Example 124, N-(5-{1-ethyl-3-[4-(trifluoromethyl)phenoxy]-1H-pyrazol-5-yl}-2,3-dihydro-1H-inden-2-yl)-N′-isobutylsulfamide], the IC50 is, setting by setting: under setting [1], under 200 nM; under setting [2], under 200 nM.

`CCn1nc(-c2cccc(C(C)(C)NS(=O)(=O)CC(F)(F)F)c2)cc1Oc1ccc(CNc2cccnc2)cc1` [Example 85, N-{1-[3-(1-ethyl-5-{4-[(pyridin-3-ylamino)methyl]phenoxy}-1H-pyrazol-3-yl)phenyl]-1-methylethyl}-2,2,2-trifluoroethanesulfonamide]: the IC50 by setting is: under setting [1], under 200 nM; under setting [2], under 200 nM.

In the case of `CCn1nc(-c2cccc(C(C)(C)NS(=O)(=O)NC3CCCC3)c2)cc1Oc1ccc(C(F)(F)F)cc1` [Example 13, N-cyclopentyl-N′-[1-(3-{1-ethyl-5-[4-(trifluoromethyl)phenoxy]-1H-pyrazol-3-yl}phenyl)-1-methylethyl]sulfamide], the IC50 under setting [1] is under 200 nM and the IC50 under setting [2] is under 200 nM.

On to `CCn1nc(Oc2ccc(C(F)(F)F)cc2)cc1-c1cccc(C(C)(C)NS(=O)(=O)N(C)C)c1` [Example 25, N′-[1-(3-{1-ethyl-3-[4-(trifluoromethyl)phenoxy]-1H-pyrazol-5-yl}phenyl)-1-methylethyl]-N,N-dimethylsulfamide], for which the IC50 is, setting by setting: under setting [1], under 200 nM; under setting [2], under 200 nM.

`CCn1nc(Oc2ccc(C(F)(F)F)cn2)cc1-c1ccc2c(c1)CC(NS(=O)(=O)NCC(F)(F)F)C2` (centres unmarked) [Example 122, N-[5-(1-ethyl-3-{[5-(trifluoromethyl)pyridin-2-yl]oxy}-1H-pyrazol-5-yl)-2,3-dihydro-1H-inden-2-yl]-N′-(2,2,2-trifluoroethyl)sulfamide]: the IC50 under setting [1] is under 200 nM and the IC50 under setting [2] was under 200 nM.

Regarding `O=S(=O)(CC(F)(F)F)NC1(c2cccc(-c3cc(Oc4ccc(C(F)(F)F)cc4)n(CC4CCCO4)n3)c2)COC1` (centres unmarked) [Example 138, N-(3-{3-[5-(4-trifluoromethylphenoxy)-1-(tetrahydrofuran-2-ylmethyl)-1H-pyrazol-3-yl]phenyl}oxetan-3-yl)-2,2,2-trifluoroethanesulfonamide], the IC50 under setting [1] is under 200 nM and the IC50 under setting [2] was under 200 nM.

In the case of `CCn1nc(-c2cccc(C(C)(C)NS(=O)(=O)CC(F)(F)F)c2)cc1Oc1ccc(CNC2CCCOC2)cc1` (centres unmarked) [Example 92, N-{1-[3-(1-ethyl-5-{4-[(tetrahydro-2H-pyran-3-ylamino)methyl]phenoxy}-1H-pyrazol-3-yl)phenyl]-1-methylethyl}-2,2,2-trifluoroethanesulfonamide], the IC50 runs as follows: under setting [1], under 200 nM; under setting [2], under 200 nM.

In the case of `CCn1nc(-c2cccc(C(C)(C)NS(=O)(=O)CC(F)(F)F)c2)cc1Oc1ccc(C(C)(C)O)cc1` [Example 70, N-[1-(3-{1-ethyl-5-[4-(1-hydroxy-1-methylethyl)phenoxy]-1H-pyrazol-3-yl}phenyl)-1-methylethyl]-2,2,2-trifluoroethanesulfonamide], the IC50 reads like this: under setting [1], under 200 nM; under setting [2], under 200 nM.

For the molecule `CCn1nc(-c2cccc(C(C)(C)NS(=O)(=O)CC(F)(F)F)c2)cc1Oc1ccc(CNCC2(C)CCCO2)cc1` (centres unmarked) [Example 90, N-[1-(3-{1-ethyl-5-[4-({[(2-methyltetrahydrofuran-2-yl)methyl]amino}methyl)phenoxy]-1H-pyrazol-3-yl}phenyl)-1-methylethyl]-2,2,2-trifluoroethanesulfonamide], the IC50 runs as follows: under setting [1], under 200 nM; under setting [2], under 200 nM.

Take `CCn1nc(-c2cccc(C3(NS(=O)(=O)NCC(C)C)CC3)c2)cc1Oc1ccc(C(F)(F)F)cc1` [Example 47, N-[1-(3-{1-ethyl-5-[4-(trifluoromethyl)phenoxy]-1H-pyrazol-3-yl}phenyl)cyclopropyl]-N′-isobutylsulfamide]: the IC50 under setting [1] is under 200 nM and the IC50 under setting [2] was under 200 nM.

Regarding `CCn1nc(-c2cccc(C(C)(C)NS(=O)(=O)CC(F)(F)F)c2)cc1Oc1ccc(-c2cnco2)cc1` [Example 76, N-[1-(3-{1-ethyl-5-[4-(1,3-oxazol-5-yl)phenoxy]-1H-pyrazol-3-yl}phenyl)-1-methylethyl]-2,2,2-trifluoroethanesulfonamide], the IC50 reads like this: under setting [1], under 200 nM; under setting [2], under 200 nM.

On to `CCn1nc(-c2cccc(C(C)(C)NS(=O)(=O)N(C)C)c2)cc1Oc1ccc(C(F)(F)F)cc1` [Example 14, N′-[1-(3-{1-ethyl-5-[4-(trifluoromethyl)phenoxy]-1H-pyrazol-3-yl}phenyl)-1-methylethyl]-N,N-dimethylsulfamide], for which the IC50 under setting [1] was under 200 nM and the IC50 under setting [2] was under 200 nM.

`CCn1nc(-c2cccc(C3(NS(=O)(=O)NC4CCCC4)CC3)c2)cc1Oc1ccc(C(F)(F)F)cc1` [Example 35, N-cyclopentyl-N′-[1-(3-{1-ethyl-5-[4-(trifluoromethyl)phenoxy]-1H-pyrazol-3-yl}phenyl)cyclopropyl] sulfamide]: the IC50 under setting [1] was under 200 nM and the IC50 under setting [2] was under 200 nM.

Regarding `CCn1nc(-c2cccc(C3(NS(=O)(=O)NC)CC3)c2)cc1Oc1ccc(C(F)(F)F)cn1` [Example 45, N-{1-[3-(1-ethyl-5-{[5-(trifluoromethyl)pyridin-2-yl]oxy}-1H-pyrazol-3-yl)phenyl]cyclopropyl}-N′-methylsulfamide], the IC50 reads like this: under setting [1], under 200 nM; under setting [2], under 200 nM.

For `CCn1nc(Oc2ccc(C(F)(F)F)cc2)cc1-c1cccc(C2(NS(=O)(=O)NCC(C)C)CC2)c1` [Example 30, N-[1-(3-{1-ethyl-3-[4-(trifluoromethyl)phenoxy]-1H-pyrazo1-5-yl}phenyl)cyclopropyl]-N′-isobutylsulfamide], the IC50 under setting [1] is under 200 nM and the IC50 under setting [2] was under 200 nM.

Turning to `CCn1nc(Oc2ccc(C(F)(F)F)cc2F)cc1-c1cccc(C(C)(C)NS(=O)(=O)CC(F)(F)F)c1` [Example 21, N-[1-(3-{1-ethyl-3-[2-fluoro-4-(trifluoromethyl)phenoxy]-1H-pyrazol-5-yl}phenyl)-1-methylethyl]-2,2,2-trifluoroethanesulfonamide], the IC50 is under 200 nM under setting [1] and under 200 nM under setting [2].

Regarding `CCn1nc(Oc2ccc(C(F)(F)F)cc2)cc1-c1ccc2c(c1)CC(NS(=O)(=O)NCC(F)(F)F)C2` (centres unmarked) [Example 120, (N-[5-(1-Ethyl-3-(4-trifluoromethylphenoxy)-1H-pyrazol-5-yl)-2,3-dihydro-1H-inden-2-yl]-N′-(2,2,2-trifluoroethyl)sulfuric diamide)], the IC50 reads like this: under setting [1], under 200 nM; under setting [2], under 200 nM.

`CCn1nc(Oc2ccc(C(F)(F)F)cc2)cc1-c1cccc(C(C)(C)NS(=O)(=O)NC2CCC2)c1` [Example 16, N-cyclobutyl-N′-[1-(3-{1-ethyl-3-[4-(trifluoromethyl)phenoxy]-1H-pyrazol-5-yl}phenyl)-1-methylethyl]sulfamide]: the IC50 under setting [1] is under 200 nM and the IC50 under setting [2] was under 200 nM.

As for `Cc1cc(Cn2nc(-c3cccc(C4(NS(=O)(=O)CC(F)(F)F)COC4)c3)cc2Oc2ccc(C(F)(F)F)cc2)on1` [Example 137, N-(3-{3-[5-(4-trifluoromethylphenoxy)-1-(5-methyl-1,2-isoxazol-3-ylmethyl)-1H-pyrazol-3-yl]phenyl}oxetan-3-yl)-2,2,2-trifluoroethanesulfonamide], the IC50 was under 200 nM under setting [1] and under 200 nM under setting [2].

In the case of `CCn1nc(-c2cccc(C3(NS(=O)(=O)NCC(F)(F)F)COC3)c2)cc1Oc1ccc(C#N)cc1` [Example 129, N-(3-{3-[5-(4-cyanophenoxy)-1-ethyl-1H-pyrazol-3-yl]phenyl}oxetane-3-yl)-N′-(2,2,2-trifluoroethyl)sulfamide], the IC50 was under 200 nM under setting [1] and under 200 nM under setting [2].
